From PMC7217877, “N-AS-triggered SPMs are direct regulators of microglia in a model of Alzheimer’s disease” (Nature Communications, 2020)
Where “and” joins values, the source holds several entries; their conditions need not be identical. Identical values can stand only once.

Columns and labels:
APP/PS1 mice = assay: mRNA levels of NEP, MMP9, IDE, CD36 in microglia (Supplementary Fig 5c); assay type: in vivo, mouse; set-up: CD36 mRNA level in microglia / NEP mRNA level in microglia / MMP9 mRNA level in microglia / IDE mRNA level in microglia: scale not given here
Procedure: Transgenic mouse lines over-expressing the hAPP695swe (APP) and presenilin-1M146V (PS1) mutations were originated from GlaxoSmithKline (Harlow, UK)[32] and maintained as described previously. We purchased 5×FAD mice from Jackson Labs (Stock number. 34840-JAX). Because APP/PS1 and 5xFAD mice show sex differences in disease progression, we used only male mice. To examine possible therapeutic effect of N-AS and aspirin in APP/PS1 mice, the N-AS (30 mg kg^−1, Sigma-Aldrich, 01912) was injected daily s.c. for 8 weeks to 7-months-old APP/PS1 mice until the age of 9 months, and aspirin (2 mg kg^−1, Sigma-Aldrich, A5376)[33] was administrated orally to 7-months-old APP/PS1 mice for 8 weeks. Also, to confirm possible therapeutic efficacy of N-AS in 5×FAD, the N-AS (30 mg kg^−1, Sigma-Aldrich, 01912) was injected daily s.c. for 4 weeks to 3-months-old 5×FAD mice until the age of 4 months. Block randomization method was used to allocate the animals to experimental groups. To eliminate the bias, we were blinded in experimental progress such as data collection and data analysis. Mice were housed at temperature of 22 °C and a 12 h day/12 h night cycle with free access to tap water and food pellets. All protocols were approved by the Kyungpook National University Institutional Animal Care and Use Committee.
For total RNA extraction from the microglia derived from WT, APP/PS1, APP/PS1 mice treated with N-AS, and APP/PS1 mice treated with aspirin, the cells were isolated from the cortex of WT, APP/PS1, APP/PS1 mice treated with N-AS, or aspirin using the methods described above. Total RNA was isolated using the kit components according to the manufacturer’s instructions (RNeasy mini kit, 74134, QIAGEN). cDNA was synthesized from 5 μg of total RNA using a commercially available kit (Takara). Quantitative real-time PCR was performed using a Corbett research RG-6000 real-time PCR instrument. Primers are described in Supplementary Table 5.

astrocyte = assay: immunofluorescence of ac-S565 and COX2 in primary cells; assay type: cell-based, C57BL/6 mice; conditions: Ab 10mM, replicates
Procedure: (§1) To confirm the generation and roles of N-AS in neurons, cells from E18 C57BL/6 mice were prepared as previously described. Cortices were dissected and then dissociated followed by incubation in papain (Worthington) at 37 °C for 15 min. Neurons were plated on poly-L-lysine-coated coverslips with neuronal culture medium, serum-free Neurobasal medium (Gibco) containing 2% B27 supplements (Gibco), 1 mM Glutamax supplement (Gibco), and 100 U ml^−1 streptomycin/ 100 U ml^−1 penicillin (Gibco) at 37 °C in a humidified atmosphere of 5% CO2. Aβ 1–42 (10 μM, 24 h, Invitrogen, 03112) was exposed to neurons and the cells were analyzed for the generation and roles of N-AS. Primary astrocyte cultures were prepared from C57BL/6 mice as described previously. […] The human microglia treated with Aβ 1–42 and/or zileuton was incubated with N-AS (2.5 μM, 2 h, Sigma-Aldrich, 01912), and were analyzed for the generation and roles of N-AS.
(§2) Thioflavin S (Sigma-Aldrich) staining was carried out according to previously described procedures. […] The sections were analyzed with a laser-scanning confocal microscope (FV3000; Olympus) or with a BX51 microscope (Olympus). MetaMorph software (Molecular Devices) was used to quantification. Three-dimensional reconstruction of microglia was recorded and analyzed using IMARIS software (Bitplane)[11]. […]

microglia = assay: as above; assay type: cell-based, C57BL/6 mice; conditions: Ab 10mM, replicates
Procedure: as §1, §2

[1] = APP/PS1 + N-AS, individual values, sFig 5c

Compound | CD36 mRNA level in microglia (APP/PS1 mice; [1]) | IDE mRNA level in microglia (APP/PS1 mice; [1]) | MMP9 mRNA level in microglia (APP/PS1 mice; [1]) | NEP mRNA level in microglia (APP/PS1 mice; [1]) | CD36 expression (APP/PS1 mice; APP/PS1 treated with N-AS) | expression of Aβ degrading enzymes (NEP, MMP9, IDE) (APP/PS1 mice; WT, APP/PS1 vehicle, APP/PS1 N-AS) | ac-S565 with COX2, immunofluorescence quantification (Fig 3c) (astrocyte) | ac-S565 with COX2, immunofluorescence quantification (Fig 3c) (microglia)
CCCCCCCCCCCCC/C=C/[C@@H](O)[C@H](CO)NC(C)=O [N-AS, N-((2S,3R,E)-1,3-Dihydroxyoctadec-4-en-2-yl)acetamide] | 0.97 and 0.75 and 0.78 and 0.69 and 0.81 and 0.87 and 0.79 and 0.61 | 0.68 and 0.56 and 0.55 and 0.48 and 0.82 and 0.81 and 0.71 and 0.78 and 0.77 | 0.87 and 0.47 and 0.35 and 0.38 and 0.69 and 0.52 and 0.57 and 1.05 and 0.8 | 0.96 and 0.5 and 0.52 and 0.57 and 0.56 and 0.59 and 0.64 and 0.85 and 0.88 | enhanced | remained unchanged between the groups |  | 
Ab: Aβ 1–42 (Invitrogen, 03112) used to induce an AD environment in cells |  |  |  |  |  |  | 0.03307 and 0.0783 and 0.03875 and 0.05053 and 0.0718 and 0.07636 | 0.1091 and 0.1473 and 0.02354 and 0.07315 and 0.06621 and 0.05168
